Experimental data published in patent publication US8153693B2, “Compounds for the selective treatment of the intestinal immuno-inflammatory component of the celiac disease” (Giuliani International Limited, priority 2007, dated 2012).
“Also recorded” adds a separate entry of the source.

Assays:
PPARγ [1] = target: T1, PPARγ (Homo sapiens, UniProt P37231); experiment: PPARγ activation, PPRE luciferase reporter in transfected HT-29 STD cells (Example 5); assay type: cell-based; conditions: 30 mM; for increase of the reporter gene activity: 24 hours, versus non-stimulated cells
T1 construct: HT-29 STD cells were transiently transfected using the Effectene™ transfection reagent; endogenous in cells; host or cells: HT-29 STD (ATCC HTB-38)
T1 sequence (P37231 1-505): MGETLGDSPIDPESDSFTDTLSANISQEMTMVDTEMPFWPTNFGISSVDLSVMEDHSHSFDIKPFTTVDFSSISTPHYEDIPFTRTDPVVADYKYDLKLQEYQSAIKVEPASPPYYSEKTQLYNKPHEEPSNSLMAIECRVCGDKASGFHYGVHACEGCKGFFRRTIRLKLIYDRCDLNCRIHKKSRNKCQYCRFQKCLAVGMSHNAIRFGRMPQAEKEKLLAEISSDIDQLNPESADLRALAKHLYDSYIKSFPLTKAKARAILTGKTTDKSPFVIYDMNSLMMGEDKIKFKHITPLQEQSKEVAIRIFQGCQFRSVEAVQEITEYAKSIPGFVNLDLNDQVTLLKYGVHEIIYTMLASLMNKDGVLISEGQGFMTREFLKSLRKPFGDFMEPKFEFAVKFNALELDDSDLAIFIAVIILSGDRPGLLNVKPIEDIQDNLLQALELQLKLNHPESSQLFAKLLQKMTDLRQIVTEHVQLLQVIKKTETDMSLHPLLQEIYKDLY
Method: (§1) The colon cell line HT-29 STD (ATCC HTB-38) was routinely grown in DMEM supplemented with 10% heat-FCS, and antibiotics. Cells were grown in monolayers, incubated at 37° C. in 5% CO2 and 95% relative humidity.
HT-29 STD cells were transiently transfected using the Effectene™ transfection reagent (Qiagen™) according to instructions from the manufacturer. To test PPARγ activation, we performed transfection with 500 ng of a minimal promoter construct containing two copies of PPRE obtained from the cytochrome p450 4A (2×CYP). The renilla luciferase plasmid (0.1 μg/well) was also transfected as an internal control for monitoring transfection efficiency and for normalizing the firefly luciferase activity. Transfected cells were left for 48 hours incubation at 37° C. […] The pH of the drug solutions was adjusted to 7.4 with NaOH. Total cell extracts were prepared using the Passive Lysis Buffer (Promega™, Madison, Wis.). Luciferase activity was assayed in 20 μl of the extract using the Promega™ Dual Luciferase assay system according to the manufacturer's protocol. Transfections were assayed in triplicate in at least three separate experiments. The luciferase activity was expressed as fold of the activity obtained in cells treated with the different molecules divided by luciferase activity from non-stimulated cells.
We investigated PPARγ transcriptional activity by transient transfections of epithelial cells with the renilla luciferase PPRE plasmids. Cells were stimulated with the different molecules during 24 hours.

PPARγ [2] = experiment: PPARγ expression by western blot in HT-29 cells; assay type: cell-based; conditions: for induction of PPARγ expression at the protein levels (in words): HT-29 cell line; for mean induction of PPARγ protein levels quantified by western blot: cells treated during 24 hours
Method: as §1
The total proteins were obtained by cell homogenization in an extraction buffer consisting of PBS with 2% Triton™, Phenyl Methyl Sulphonyl Fluoride (PMSF) 100 mM and a classical protease inhibitor cocktail. The total proteins were then separated by polyacrylamide gel electrophoresis and electroblotted. Polyvinylidendifluoride (PVDF) membranes were incubated overnight with rabbit polyclonal primary antibody directed against PPARγ (dilution 1/500, TEBU, Le Perray en Yveline, France). β-actin was detected using a rabbit monoclonal primary antibody diluted at 1/10,000 (Sigma). Immunodetection with a secondary peroxidase-conjugated antibody (1/1000, Dako™, Trappes, France) and chemiluminescence was performed according to the manufacturer's protocol (ECL™, Amersham Pharmacia Biotech™, Orsay, France). Optical density values of PPARγ were given for each condition in proportion to the quantity of the internal control β-actin in the same sample.

HT-29 STD cells [3] = experiment: Cytotoxic effect on epithelial cells seen in the HT-29 experiments; assay type: cell-based; conditions: 30 mM
Method: After 24 h of culture, HT-29 STD cells were treated during 24 h with the compounds A, B, C, D and F, at 30 mM. […] The pH of the drug solutions was adjusted to 7.4 with NaOH. Cells were fixed in PFA 4%, permeabilized in PBS containing 0.1% Triton X-100™ at 4° C. and then incubated with goat normal serum and blocking buffer (1% BSA in PBS) to minimize non-specific adsorption of the antibody.
(§2) After 24 h of culture, HT-29 STD cells were treated during 24 h with the compounds A, B, C, D, F, at a concentration of 30 mM. […] The pH of the drug solutions was adjusted to 7.4 with NaOH. Cells undergoing apoptosis were identified by enzymatic labelling of DNA strands using a terminal transferase dUTP nick end labelling assay (TUNEL assay, Roche Diagnostics™, Meylan, France). Counts of at least 500 cells/sample were systematically performed blindly in one experiment. The results were expressed as the mean±SEM of the number of stained cells.

HT-29 STD cells [4] = experiment: Detection of apoptosis, TUNEL assay; assay type: cell-based; conditions: 30 mM, 24 h
Method: as §2

[5] = Solubility of the molecules in the cell experiments; assay type: physicochemical; conditions: reason for exclusion from the cell experiments

Nc1cc2c(c(C(=O)O)c1)OCC2 [C]
PPARγ activation (in words) (PPARγ [1]): induce PPARγ activation | increase of the reporter gene activity (PPARγ [1]): two-fold | induction of PPARγ expression at the protein levels (in words) (PPARγ [2]): induce PPARγ expression | mean induction of PPARγ protein levels quantified by western blot (PPARγ [2]): 2 fold

CCOc1ccc(N)cc1C(=O)NO [Compound D]
induction of PPARγ expression at the protein levels (in words) (PPARγ [2]): induce PPARγ expression | mean induction of PPARγ protein levels quantified by western blot (PPARγ [2]): 2 fold | cytotoxic effect on epithelial cells (HT-29 STD cells [3]): rapid cytotoxic effect; also recorded: direct cytotoxic effects

COc1ccc(N)cc1C(=O)NO [A]
cytotoxic effect on epithelial cells (HT-29 STD cells [3]): rapid cytotoxic effects; also recorded: direct cytotoxic effects

CC(C)Oc1ccc(N)cc1C(=O)O [F]
apoptosis, share of epithelial cells (TUNEL) (HT-29 STD cells [4]): 80% | PPARγ activation (in words) (PPARγ [1]): induce PPARγ activation | increase of the reporter gene activity (PPARγ [1]): two-fold | induction of PPARγ expression at the protein levels (in words) (PPARγ [2]): induce PPARγ expression | mean induction of PPARγ protein levels quantified by western blot (PPARγ [2]): 2 fold

CC(C)N(c1ccc(O)c(C(=O)O)c1)C(C)C [G]
cytotoxic effect on epithelial cells (HT-29 STD cells [3]): rapid cytotoxic effect; also recorded: direct cytotoxic effects | solubility [5]: poor solubility

CC1(C)OC(=O)c2cc(N)ccc2O1 [E]
solubility [5]: poor solubility

COc1cc(N)ccc1C(=O)NO [B]
cytotoxic effect on epithelial cells (HT-29 STD cells [3]): rapid cytotoxic effects; also recorded: direct cytotoxic effects
